We go through 19 compounds from ChEMBL document CHEMBL5604065, “ASAP - DENV-3 NS2B-NS3 protease fluorescence dose response” (2024).

Broadly, the pIC50 is −log10 of the IC50, conventionally taken in molar units. Lower therefore signals a high IC50.

pIC50: −log10 of the molar value.

In this assay the target is T1, NS3 protease (dengue virus type 3, UniProt A0A0B5JFF1).
T1 sequence (A0A0B5JFF1 whole entry): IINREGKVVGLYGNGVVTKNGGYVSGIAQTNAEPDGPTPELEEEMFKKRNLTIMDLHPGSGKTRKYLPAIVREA
The assay is described as follows: Functional biochemical assay to identify treatments for viral infectious disease that targets Dengue virus type 3 NS2B-NS3 protease. Utilizing a direct enzyme activity measurement method, reading the fluorescence intensity is used to characterize the relative potency of inhibitors as IC50. More on the design: species or system Philippines/H87/1956.

As to `N#C[C@H](Nc1ccc2c(c1)CNC2)c1cc(Cl)cc(C2CC2)c1`, the negative logarithm of the IC50 (pIC50) is below 4.00.

On to `O=C(Nc1ccc2c(c1)CNC2)c1cc(F)cc2c1CCC2`, for which the negative-log IC50 (pIC50) is below 4.00.

For `Cc1nc2c(C(=O)Nc3ccc4c(c3)CNC4)cc(Cl)cc2[nH]1`, the negative-log IC50 (pIC50) was below 4.00.

For the compound `COc1cccc(-c2nc3c(C(=O)Nc4ccc5c(c4)CNC5)cc(F)cc3[nH]2)c1`, the pIC50 was 5.43.

Regarding `Cn1cc(CNC(=O)[C@H](Nc2ccc3c(c2)CNC3)c2cc(Cl)cc(C3CC3)c2)cn1`, the pIC50 is 4.09.

Compound `O=C(Nc1ccc2c(c1)CNC2)c1cccc2[nH]c(=O)[nH]c12` showed a negative-log IC50 (pIC50) of 4.39.

In turn, `O=C(Nc1ccc2c(c1)CNC2)c1cc(Br)cc2[nH]c(=O)[nH]c12` had a negative-log IC50 (pIC50) of 4.67.

The compound `Cc1c(C(=O)Nc2cc([C@H]3CCOC3)ccn2)cc(C2CC2)n1C` gave a negative logarithm of the IC50 (pIC50) below 4.00.

In the case of `O=C(Nc1ccc2c(c1)CNC2)c1cc(F)cc2[nH]c(-c3ccccc3)nc12`, the negative-log IC50 (pIC50) was 5.45.

As to `O=C(NCC(F)F)[C@H](Nc1ccc2c(c1)CNC2)c1cc(F)cc2[nH]ccc12`, the pIC50 is below 4.00.

Consider `c1cc(C2CCN(Cc3c[nH]c4ccccc34)CC2)c2ccncc2c1`, for which the negative logarithm of the IC50 (pIC50) is below 4.00.

Turning to `Cc1cccc(-c2nc3c(C(=O)Nc4ccc5c(c4)CNC5)cc(F)cc3[nH]2)c1`, the pIC50 is 5.21.

For `O=C(Nc1ccc2c(c1)CNC2)c1ccc2c(C3=CCNCC3)csc2c1`, the negative logarithm of the IC50 (pIC50) is 4.26.

For `O=C(Nc1ccc2c(c1)CNC2)c1cccc2c(C3CNC3)n[nH]c12`, the pIC50 is 5.03.

For the compound `O=C(Nc1ccc2c(c1)CNC2)c1cc(F)cc2[nH]c(-c3cccc(F)c3)nc12`, the negative-log IC50 (pIC50) is 5.56. Against the preceding compound, the pIC50 is 0.53 log units higher.

Regarding `O=C(Nc1cc2c(c(C3=CCS(=O)(=O)CC3)c1)CNC2)c1cc(F)cc2[nH]ncc12`, the pIC50 is 4.89.

Consider `O=C(Nc1ccc2c(c1)CNC2)c1cc(Cl)cc2cc[nH]c12`, for which the pIC50 is 4.06.

`COc1cc(-c2cc(NC(=O)c3cc(F)cc4[nH]ncc34)cc3c2CNC3)ccn1` showed a negative logarithm of the IC50 (pIC50) of 4.89.

Consider `Cn1cc2cc(Cl)cc(C(=O)Nc3ccc4c(c3)CNC4)c2n1`, for which the pIC50 was below 4.00.
